What was measured:
[1] = molecular target: T1, Peroxisome proliferator-activated receptor alpha (Homo sapiens, UniProt Q07869); assay type: functional
T1 sequence (Q07869 whole entry): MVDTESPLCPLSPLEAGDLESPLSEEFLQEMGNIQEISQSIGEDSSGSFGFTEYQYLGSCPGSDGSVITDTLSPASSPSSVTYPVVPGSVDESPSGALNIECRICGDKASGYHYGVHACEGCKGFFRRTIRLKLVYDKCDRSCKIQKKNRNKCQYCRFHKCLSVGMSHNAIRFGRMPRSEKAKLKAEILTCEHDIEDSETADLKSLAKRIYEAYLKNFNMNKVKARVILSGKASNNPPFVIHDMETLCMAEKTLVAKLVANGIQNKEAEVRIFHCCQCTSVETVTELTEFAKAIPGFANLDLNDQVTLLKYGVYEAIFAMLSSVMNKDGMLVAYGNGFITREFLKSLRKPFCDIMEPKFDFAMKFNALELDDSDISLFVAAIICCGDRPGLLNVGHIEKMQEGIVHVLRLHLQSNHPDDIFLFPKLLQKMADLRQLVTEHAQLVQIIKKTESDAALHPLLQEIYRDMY

[2] = molecular target: D(1A) dopamine receptor (Homo sapiens, UniProt P21728); assay type: functional, cell-based
[3] = molecular target: T2, Prostaglandin G/H synthase 1 (Homo sapiens, UniProt P23219); assay type: functional
[4] = molecular target: T3, Alpha-2A adrenergic receptor (Homo sapiens, UniProt P08913)
T3 sequence (P08913 whole entry): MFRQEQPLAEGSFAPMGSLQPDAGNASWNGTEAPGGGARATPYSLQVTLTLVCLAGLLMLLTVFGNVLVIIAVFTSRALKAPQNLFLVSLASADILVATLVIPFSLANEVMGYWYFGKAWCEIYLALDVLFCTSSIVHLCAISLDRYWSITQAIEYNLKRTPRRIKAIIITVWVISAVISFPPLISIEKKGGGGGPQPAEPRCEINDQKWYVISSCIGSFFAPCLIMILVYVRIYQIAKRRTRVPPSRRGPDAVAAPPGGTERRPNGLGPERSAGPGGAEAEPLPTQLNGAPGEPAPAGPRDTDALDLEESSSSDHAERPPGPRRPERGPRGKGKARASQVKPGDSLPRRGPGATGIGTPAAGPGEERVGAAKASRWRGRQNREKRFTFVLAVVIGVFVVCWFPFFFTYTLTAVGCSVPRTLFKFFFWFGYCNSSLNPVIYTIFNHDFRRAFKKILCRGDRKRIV

[5] = molecular target: Mu-type opioid receptor (Homo sapiens, UniProt P35372)
[6] = molecular target: Prothrombin (Homo sapiens, UniProt P00734); assay type: functional
[7] = molecular target: T2, Prostaglandin G/H synthase 1; assay type: functional; remark: listed apart in the source
[8] = molecular target: T4, 5-hydroxytryptamine receptor 1A (Homo sapiens, UniProt P08908)
T4 sequence (P08908 whole entry): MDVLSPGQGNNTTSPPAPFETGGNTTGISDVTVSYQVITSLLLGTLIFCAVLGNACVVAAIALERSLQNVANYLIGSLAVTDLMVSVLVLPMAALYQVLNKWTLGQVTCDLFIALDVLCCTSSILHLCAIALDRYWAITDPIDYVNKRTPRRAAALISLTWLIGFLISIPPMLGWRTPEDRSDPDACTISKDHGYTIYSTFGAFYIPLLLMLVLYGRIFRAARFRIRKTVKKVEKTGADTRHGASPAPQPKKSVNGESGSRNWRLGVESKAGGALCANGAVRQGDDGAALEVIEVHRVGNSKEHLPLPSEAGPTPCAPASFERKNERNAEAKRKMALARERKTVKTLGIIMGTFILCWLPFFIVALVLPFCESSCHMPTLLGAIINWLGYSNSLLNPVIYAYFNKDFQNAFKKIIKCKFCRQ

[9] = molecular target: cGMP-inhibited 3',5'-cyclic phosphodiesterase 3A (Homo sapiens, UniProt Q14432); assay type: functional
[10] = molecular target: T5, Amine oxidase [flavin-containing] A (Homo sapiens, UniProt P21397); assay type: functional
T5 sequence (P21397 whole entry): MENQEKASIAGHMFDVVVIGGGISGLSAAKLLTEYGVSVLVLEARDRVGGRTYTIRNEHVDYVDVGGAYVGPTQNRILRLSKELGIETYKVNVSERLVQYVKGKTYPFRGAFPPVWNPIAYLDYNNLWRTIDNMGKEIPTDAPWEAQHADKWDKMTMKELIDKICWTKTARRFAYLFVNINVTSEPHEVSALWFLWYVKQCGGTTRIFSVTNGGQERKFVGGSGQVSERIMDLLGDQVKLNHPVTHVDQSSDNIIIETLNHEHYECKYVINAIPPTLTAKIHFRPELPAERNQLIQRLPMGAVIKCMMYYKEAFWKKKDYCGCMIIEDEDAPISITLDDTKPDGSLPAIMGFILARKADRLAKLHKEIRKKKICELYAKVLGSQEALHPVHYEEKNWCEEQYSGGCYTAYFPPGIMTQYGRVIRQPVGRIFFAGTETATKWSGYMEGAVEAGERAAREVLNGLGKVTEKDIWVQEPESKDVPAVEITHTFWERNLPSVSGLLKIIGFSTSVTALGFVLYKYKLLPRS

[11] = molecular target: T6, Estrogen receptor (Homo sapiens, UniProt P03372)
T6 sequence (P03372 whole entry): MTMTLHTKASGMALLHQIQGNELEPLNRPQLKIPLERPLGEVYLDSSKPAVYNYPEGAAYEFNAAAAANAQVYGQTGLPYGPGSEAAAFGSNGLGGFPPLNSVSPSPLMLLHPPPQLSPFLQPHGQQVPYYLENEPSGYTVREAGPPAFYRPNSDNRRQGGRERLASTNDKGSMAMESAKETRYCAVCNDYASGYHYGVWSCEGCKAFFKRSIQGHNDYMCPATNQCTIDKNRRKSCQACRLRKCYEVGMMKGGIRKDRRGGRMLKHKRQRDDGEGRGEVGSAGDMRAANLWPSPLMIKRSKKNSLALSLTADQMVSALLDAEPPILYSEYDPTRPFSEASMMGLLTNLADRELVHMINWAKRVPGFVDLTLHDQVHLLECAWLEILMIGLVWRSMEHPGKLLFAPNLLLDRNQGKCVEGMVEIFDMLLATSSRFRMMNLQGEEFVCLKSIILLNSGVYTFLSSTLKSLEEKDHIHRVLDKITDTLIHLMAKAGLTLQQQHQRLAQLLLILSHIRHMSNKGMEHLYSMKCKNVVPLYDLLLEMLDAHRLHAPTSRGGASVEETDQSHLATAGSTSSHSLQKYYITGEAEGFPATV
Note: assay procedure not described here.

T2 sequence (P23219 whole entry): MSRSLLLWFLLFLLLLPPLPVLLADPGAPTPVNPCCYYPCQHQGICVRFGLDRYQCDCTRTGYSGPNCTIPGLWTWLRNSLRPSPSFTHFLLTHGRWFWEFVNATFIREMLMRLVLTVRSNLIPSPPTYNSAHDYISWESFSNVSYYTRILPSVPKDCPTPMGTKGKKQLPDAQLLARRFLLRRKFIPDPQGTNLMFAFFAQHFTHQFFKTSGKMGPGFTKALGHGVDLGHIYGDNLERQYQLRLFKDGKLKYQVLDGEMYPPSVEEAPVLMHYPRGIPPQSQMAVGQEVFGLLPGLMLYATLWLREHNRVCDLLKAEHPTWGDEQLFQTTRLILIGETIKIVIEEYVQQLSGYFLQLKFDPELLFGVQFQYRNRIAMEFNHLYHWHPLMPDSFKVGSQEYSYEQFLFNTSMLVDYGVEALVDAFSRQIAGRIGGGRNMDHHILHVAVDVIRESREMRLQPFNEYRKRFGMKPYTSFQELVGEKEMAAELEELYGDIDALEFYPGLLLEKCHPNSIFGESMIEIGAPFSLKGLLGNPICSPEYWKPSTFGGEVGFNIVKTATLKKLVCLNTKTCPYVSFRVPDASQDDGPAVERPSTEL
Chain of D(1A) dopamine receptor (P21728 whole entry): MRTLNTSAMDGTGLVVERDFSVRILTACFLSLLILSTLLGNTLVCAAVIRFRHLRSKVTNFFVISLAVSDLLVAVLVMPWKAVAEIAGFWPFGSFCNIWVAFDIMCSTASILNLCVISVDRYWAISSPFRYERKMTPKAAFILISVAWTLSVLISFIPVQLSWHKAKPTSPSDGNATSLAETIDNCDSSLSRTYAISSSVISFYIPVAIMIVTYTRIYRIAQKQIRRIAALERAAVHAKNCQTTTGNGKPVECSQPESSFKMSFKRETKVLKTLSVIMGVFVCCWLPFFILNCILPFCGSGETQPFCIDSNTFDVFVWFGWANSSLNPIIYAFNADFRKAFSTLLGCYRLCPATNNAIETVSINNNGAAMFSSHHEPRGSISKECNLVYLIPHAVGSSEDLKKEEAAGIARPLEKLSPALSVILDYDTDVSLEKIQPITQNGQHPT
Chain of cGMP-inhibited 3',5'-cyclic phosphodiesterase 3A (Q14432 whole entry): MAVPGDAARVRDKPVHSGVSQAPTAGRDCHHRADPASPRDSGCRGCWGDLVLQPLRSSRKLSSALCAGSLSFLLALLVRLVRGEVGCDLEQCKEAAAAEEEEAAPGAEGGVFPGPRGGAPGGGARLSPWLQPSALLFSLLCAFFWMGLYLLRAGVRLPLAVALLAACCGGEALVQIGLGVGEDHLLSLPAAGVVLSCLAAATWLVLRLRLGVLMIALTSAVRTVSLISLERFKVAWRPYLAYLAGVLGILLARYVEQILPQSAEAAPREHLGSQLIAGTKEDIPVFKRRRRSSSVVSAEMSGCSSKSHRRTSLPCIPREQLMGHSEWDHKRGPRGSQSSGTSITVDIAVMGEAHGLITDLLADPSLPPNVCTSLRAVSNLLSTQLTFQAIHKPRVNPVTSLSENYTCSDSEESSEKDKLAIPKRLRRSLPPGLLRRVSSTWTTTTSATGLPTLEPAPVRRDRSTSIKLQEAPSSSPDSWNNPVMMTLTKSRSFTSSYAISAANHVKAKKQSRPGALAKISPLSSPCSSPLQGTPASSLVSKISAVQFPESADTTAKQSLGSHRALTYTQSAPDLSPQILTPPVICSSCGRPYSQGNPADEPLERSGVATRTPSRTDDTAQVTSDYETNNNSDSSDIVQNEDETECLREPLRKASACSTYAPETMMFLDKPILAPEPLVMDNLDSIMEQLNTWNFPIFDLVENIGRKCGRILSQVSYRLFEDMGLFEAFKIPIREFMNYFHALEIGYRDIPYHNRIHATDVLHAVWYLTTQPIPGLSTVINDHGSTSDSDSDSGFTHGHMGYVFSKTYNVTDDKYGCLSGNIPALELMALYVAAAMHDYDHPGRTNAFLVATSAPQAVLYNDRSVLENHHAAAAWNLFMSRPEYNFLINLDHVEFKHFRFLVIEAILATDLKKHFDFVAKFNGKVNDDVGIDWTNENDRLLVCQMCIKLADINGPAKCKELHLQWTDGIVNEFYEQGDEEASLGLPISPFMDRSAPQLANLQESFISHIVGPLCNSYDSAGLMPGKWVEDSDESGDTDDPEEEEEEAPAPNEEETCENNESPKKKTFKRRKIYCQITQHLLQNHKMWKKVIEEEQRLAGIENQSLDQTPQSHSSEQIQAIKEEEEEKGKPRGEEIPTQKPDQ
Chain of Mu-type opioid receptor (P35372 whole entry): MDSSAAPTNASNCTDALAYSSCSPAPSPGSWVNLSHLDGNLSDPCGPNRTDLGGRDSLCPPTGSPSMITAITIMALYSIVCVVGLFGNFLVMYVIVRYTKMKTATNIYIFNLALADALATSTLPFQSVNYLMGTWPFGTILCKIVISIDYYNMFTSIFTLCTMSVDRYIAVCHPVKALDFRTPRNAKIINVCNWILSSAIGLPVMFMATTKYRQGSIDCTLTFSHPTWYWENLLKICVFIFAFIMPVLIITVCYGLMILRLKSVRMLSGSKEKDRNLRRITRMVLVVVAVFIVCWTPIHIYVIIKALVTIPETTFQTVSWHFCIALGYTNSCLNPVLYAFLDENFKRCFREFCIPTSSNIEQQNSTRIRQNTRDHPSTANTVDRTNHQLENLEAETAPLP

For `CC(C)c1c(C(=O)Nc2ccccc2)c(-c2ccccc2)c(-c2ccc(F)cc2)n1CC[C@@H](O)C[C@@H](O)CC(=O)O` [ATORVASTATIN], the AC50 [1] was > 30 µM.

For `CC(C)(Oc1ccc(C2CC2(Cl)Cl)cc1)C(=O)O` (configuration not stated) [CIPROFIBRATE], the AC50 [1] was > 30 µM.

In the case of `CCN1CCC[C@H]1CNC(=O)c1cc(S(N)(=O)=O)ccc1OC` [LEVOSULPIRIDE], the AC50 [2] is reported as > 30 µM.

With `CCCCCCC(C)(C)c1cc(O)c2c(c1)OC(C)(C)C1CCC(=O)CC21` (configuration not stated) [NABILONE] the AC50 [2] was > 30 µM.

For `Nc1nc2ccc(OC(F)(F)F)cc2s1` [RILUZOLE], the AC50 [3] was > 30 µM, the AC50 [4] was > 30 µM and the AC50 [5] was > 30 µM. For the same molecule, the AC50 [6] was > 30 µM, the AC50 [7] was > 30 µM and the AC50 [8] was > 30 µM. For the same molecule, the AC50 [9] was > 30 µM, the AC50 [10] was > 30 µM and the AC50 [11] was > 30 µM.

With BIVALIRUDIN the AC50 [3] was > 30 µM, the AC50 [4] was > 30 µM and the AC50 [5] was > 30 µM. For the same molecule, the AC50 [6] was 0.0092 µM, the AC50 [7] was > 30 µM and the AC50 [8] was > 30 µM. For the same molecule, the AC50 [9] was > 30 µM, the AC50 [10] was > 30 µM and the AC50 [11] was > 30 µM.
